Where two headings read alike, the source gives them in different places.
Tests used:
HDAC7 = HDAC7 (Homo sapiens, UniProt Q8WUI4); settings: read-out: HDAC7 IC50; Table O1
HDAC1 [1] = biological target: T1, HDAC1 (Homo sapiens, UniProt Q13547); settings: read-out: HDAC1 IC50; Table O1
HDAC2 [2] = biological target: T2, HDAC2 (Homo sapiens, UniProt Q92769); experiment: HDAC biochemical assay of O10-O12 (Table O1); parameters: The recombinant, full-length HDAC protein (BPS Biosciences) was incubated; purchased BPS Biosciences
T2 sequence (Q92769 whole entry): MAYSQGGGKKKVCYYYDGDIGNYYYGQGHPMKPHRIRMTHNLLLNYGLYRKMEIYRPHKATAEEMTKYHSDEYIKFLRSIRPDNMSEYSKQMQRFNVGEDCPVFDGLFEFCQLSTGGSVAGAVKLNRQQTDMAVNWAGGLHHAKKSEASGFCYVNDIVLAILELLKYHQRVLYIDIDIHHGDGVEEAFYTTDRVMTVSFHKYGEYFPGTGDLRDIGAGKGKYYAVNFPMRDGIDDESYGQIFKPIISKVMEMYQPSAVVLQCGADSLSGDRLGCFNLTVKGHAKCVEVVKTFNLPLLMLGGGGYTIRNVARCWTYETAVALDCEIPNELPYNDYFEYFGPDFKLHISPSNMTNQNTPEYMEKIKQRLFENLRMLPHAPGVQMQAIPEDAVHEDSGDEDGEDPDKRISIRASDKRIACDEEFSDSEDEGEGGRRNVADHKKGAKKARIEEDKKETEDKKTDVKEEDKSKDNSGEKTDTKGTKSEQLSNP

HDAC8 [3] = biological target: T3, HDAC8 (Homo sapiens, UniProt Q9BY41); settings: read-out: HDAC8 IC50; Table O1
T3 sequence (Q9BY41 1-377): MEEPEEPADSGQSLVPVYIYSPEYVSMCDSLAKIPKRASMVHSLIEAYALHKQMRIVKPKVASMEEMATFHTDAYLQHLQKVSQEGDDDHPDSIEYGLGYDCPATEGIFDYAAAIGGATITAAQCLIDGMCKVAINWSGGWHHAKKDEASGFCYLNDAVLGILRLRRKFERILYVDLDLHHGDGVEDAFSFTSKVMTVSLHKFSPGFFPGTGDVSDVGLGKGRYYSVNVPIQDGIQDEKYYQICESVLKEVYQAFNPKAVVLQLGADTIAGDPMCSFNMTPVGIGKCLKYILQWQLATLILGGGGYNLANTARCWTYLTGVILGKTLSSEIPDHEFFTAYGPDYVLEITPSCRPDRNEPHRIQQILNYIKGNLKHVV

HDAC6 = biological target: T4, HDAC6 (Homo sapiens, UniProt Q9UBN7); settings: read-out: HDAC6 IC50; Table O1; 200 μM TCEP
T4 sequence (Q9UBN7 1-1215): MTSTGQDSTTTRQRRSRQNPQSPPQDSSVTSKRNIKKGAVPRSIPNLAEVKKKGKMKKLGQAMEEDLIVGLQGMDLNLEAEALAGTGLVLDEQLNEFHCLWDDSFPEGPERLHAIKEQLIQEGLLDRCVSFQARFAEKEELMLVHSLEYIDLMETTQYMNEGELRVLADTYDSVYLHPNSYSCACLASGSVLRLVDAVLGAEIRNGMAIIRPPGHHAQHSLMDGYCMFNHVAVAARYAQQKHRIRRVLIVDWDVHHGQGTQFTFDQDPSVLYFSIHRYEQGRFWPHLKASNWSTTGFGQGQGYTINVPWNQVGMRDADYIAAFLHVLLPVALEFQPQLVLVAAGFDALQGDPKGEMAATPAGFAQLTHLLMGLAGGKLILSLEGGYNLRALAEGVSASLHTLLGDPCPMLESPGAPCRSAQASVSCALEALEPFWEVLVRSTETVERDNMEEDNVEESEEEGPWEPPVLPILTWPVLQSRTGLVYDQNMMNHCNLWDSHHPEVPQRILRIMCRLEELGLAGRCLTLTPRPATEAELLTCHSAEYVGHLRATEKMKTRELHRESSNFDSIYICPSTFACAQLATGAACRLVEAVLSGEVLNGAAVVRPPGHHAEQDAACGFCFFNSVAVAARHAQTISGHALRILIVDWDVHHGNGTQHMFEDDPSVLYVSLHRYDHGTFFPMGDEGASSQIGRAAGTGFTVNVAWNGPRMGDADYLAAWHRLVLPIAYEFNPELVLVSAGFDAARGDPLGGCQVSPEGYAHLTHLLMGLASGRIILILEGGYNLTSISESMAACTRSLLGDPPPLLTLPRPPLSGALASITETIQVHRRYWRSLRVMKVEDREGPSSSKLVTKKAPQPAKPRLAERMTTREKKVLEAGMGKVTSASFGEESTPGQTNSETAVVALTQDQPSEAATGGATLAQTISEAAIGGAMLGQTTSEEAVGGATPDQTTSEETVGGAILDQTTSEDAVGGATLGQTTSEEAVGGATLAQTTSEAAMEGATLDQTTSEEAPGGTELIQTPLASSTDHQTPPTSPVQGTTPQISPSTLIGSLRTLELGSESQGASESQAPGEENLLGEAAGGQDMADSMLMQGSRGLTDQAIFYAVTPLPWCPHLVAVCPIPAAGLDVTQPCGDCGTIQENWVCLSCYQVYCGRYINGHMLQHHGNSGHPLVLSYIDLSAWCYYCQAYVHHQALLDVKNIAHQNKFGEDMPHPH

HDAC3 = biological target: T5, HDAC3 (Homo sapiens, UniProt O15379); experiment: HDAC biochemical assay of O10-O12 (Table O1)
T5 construct: The recombinant, full-length HDAC protein (BPS Biosciences) was incubated; purchased BPS Biosciences
T5 sequence (O15379 whole entry): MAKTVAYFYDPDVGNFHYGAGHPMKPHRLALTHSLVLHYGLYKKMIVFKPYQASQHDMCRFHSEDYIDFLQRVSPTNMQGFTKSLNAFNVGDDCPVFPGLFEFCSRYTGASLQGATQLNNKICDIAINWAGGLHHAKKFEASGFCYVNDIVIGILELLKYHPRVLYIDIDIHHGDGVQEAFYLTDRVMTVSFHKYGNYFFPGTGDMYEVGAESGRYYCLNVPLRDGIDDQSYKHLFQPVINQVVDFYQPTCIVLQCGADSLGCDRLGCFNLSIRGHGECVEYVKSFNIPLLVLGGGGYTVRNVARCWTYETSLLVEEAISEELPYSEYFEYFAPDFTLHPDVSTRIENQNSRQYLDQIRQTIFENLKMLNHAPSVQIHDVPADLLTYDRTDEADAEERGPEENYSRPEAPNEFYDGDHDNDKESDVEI
T5 sequence (Q9Y618 395-489 partner limits assumed): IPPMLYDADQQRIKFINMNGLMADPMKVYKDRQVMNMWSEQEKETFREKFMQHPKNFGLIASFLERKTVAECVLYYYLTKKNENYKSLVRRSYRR

NCI-60 cancer cell lines [4] = settings: five-dose; for Percent of Cell Lines Impacted (%), GI50: 50% Growth Inhibition; for Percent of Cell Lines Impacted (%), LC50: 50% Lethal Concentration reached; for Percent of Cell Lines Impacted (%), TGI / Total Impacted Cell Lines (n), TGI: Total Growth Inhibition
Source text: (§1) All compounds submitted for screening were initially tested at a single high dose (10^-5 M) against the fill NCI 60 cell panel. Only compounds which satisfied pre-determined threshold inhibition criteria in a minimum number of cell lines progressed to a second round of testing utilizing a more comprehensive 5-dose inhibition assay. The threshold inhibition criteria for progression to the 5-dose assays were selected to efficiently capture compounds with anti-proliferative activity based on historical DTP screening data.
(§2) Concentrations for G150, IC50, TGI, and LC50 were calculated for all cell lines tested, and heat plots were prepared.

HDAC2 [5] = biological target: T2, HDAC2; experiment: HDAC biochemical assay of P5-P12 (Table P1); parameters: The recombinant, full-length HDAC protein (BPS Biosciences) was incubated; purchased BPS Biosciences
renal cancer cell lines [6] = settings: for Percent of Cell Lines Impacted (%), LC50, Renal: five-dose
Source text: as §1, §2

[7] = tested on: human malignant melanoma cell lines; experiment: melanoma cell viability, ATP content (Cell TiterGlo); type: cell-based; settings: range over panel of melanoma cell lines, FIG. 4, read-out: IC50 melanoma cell proliferation
HDAC2 [8] = biological target: T2, HDAC2; type: biochemical; parameters: The recombinant, full-length HDAC protein (BPS Biosciences) was incubated; purchased BPS Biosciences; settings: read-out: HDAC inhibitory activity (Ki) HDAC2
Source text: (§3) To measure the inhibitory effect on deacetylase function in vitro, a continuous kinetic biochemical assay miniaturized to 384-well plate format was optimized.
(§4) Fluorescence measurements were obtained in real-time on a Varioskan microtiter plate reader (Thermo).

melanoma cell lines [9] = experiment: cells; settings: read-out: Average Concentration (M), LC50, Melanoma
Source text: as §1, §2

melanoma cell lines [10] = settings: for Percent of Cell Lines Impacted (%), LC50, Melanoma: five-dose
Source text: as §1, §2

HDAC1 [11] = biological target: T1, HDAC1; settings: read-out: HDAC inhibitory activity (Ki) HDAC1; Table 2
Source text: as §3, §4

NCI-60 cancer cell lines [12] = experiment: cells
Source text: as §1, §2

HDACs 1-3 = experiment: HDAC biochemical assay of P5-P12, summary statements
HDAC8 [13] = biological target: T3, HDAC8; experiment: HDAC biochemical assay of P5-P12 (Table P1); parameters: The recombinant, full-length HDAC protein (BPS Biosciences) was incubated; purchased BPS Biosciences
HDAC1 [14] = biological target: T1, HDAC1; experiment: HDAC biochemical assay of P5-P12 (Table P1); parameters: The recombinant, full-length HDAC protein (BPS Biosciences) was incubated; purchased BPS Biosciences
colon cancer cell lines [15] = experiment: cells; settings: read-out: Average Concentration (M), LC50, Colon
Source text: as §1, §2

renal cancer cell lines [16] = experiment: NCI 60 one-dose screen; type: cell-based; settings: of the 6 renal
melanoma cell lines [17] = experiment: NCI 60 one-dose screen; type: cell-based
[18] = tested on: ovarian cancer cell lines; experiment: NCI 60 one-dose screen; type: cell-based; settings: of the 7 ovarian
[19] = tested on: ovarian cancer cell lines; experiment: cells; settings: read-out: Average Concentration (M), LC50, Ovarian
Source text: as §1, §2

colon cancer cell lines [20] = experiment: NCI 60 one-dose screen; type: cell-based; settings: of the 7 colon
CNS cancer cell lines [21] = experiment: NCI 60 one-dose screen; type: cell-based; settings: of the 6 CNS
NCI 60 cell panel = type: cell-based; settings: one-dose
Source text: A) Eight compounds were submitted to the National Cancer Institute (NCI) 60 tumor cell line drug discovery program (DTP) for anticancer screening.
as §1

colon cancer cell lines [22] = tested on: colon cancer cell lines
Source text: as §1, §2

[23] = tested on: ovarian cancer cell lines
Source text: as §1, §2

CNS cancer cell lines [24] = experiment: cells; settings: read-out: Average Concentration (M), LC50, CNS
Source text: as §1, §2

renal cancer cell lines [25] = experiment: cells; settings: read-out: Average Concentration (M), LC50, Renal
Source text: as §1, §2

CNS cancer cell lines [26] = tested on: CNS cancer cell lines
Source text: as §1, §2

[27] = tested on: breast cancer cells lines; experiment: NCI 60 one-dose screen; type: cell-based; settings: of the 6 breast
[28] = tested on: non-small cell lung cancer cell lines; experiment: NCI 60 one-dose screen; type: cell-based; settings: of the 9 cell lines
[29] = read-out: Average Concentration (M), GI50
[30] = read-out: GI50 concentrations (M), order of magnitude

T1 sequence (Q13547 whole entry): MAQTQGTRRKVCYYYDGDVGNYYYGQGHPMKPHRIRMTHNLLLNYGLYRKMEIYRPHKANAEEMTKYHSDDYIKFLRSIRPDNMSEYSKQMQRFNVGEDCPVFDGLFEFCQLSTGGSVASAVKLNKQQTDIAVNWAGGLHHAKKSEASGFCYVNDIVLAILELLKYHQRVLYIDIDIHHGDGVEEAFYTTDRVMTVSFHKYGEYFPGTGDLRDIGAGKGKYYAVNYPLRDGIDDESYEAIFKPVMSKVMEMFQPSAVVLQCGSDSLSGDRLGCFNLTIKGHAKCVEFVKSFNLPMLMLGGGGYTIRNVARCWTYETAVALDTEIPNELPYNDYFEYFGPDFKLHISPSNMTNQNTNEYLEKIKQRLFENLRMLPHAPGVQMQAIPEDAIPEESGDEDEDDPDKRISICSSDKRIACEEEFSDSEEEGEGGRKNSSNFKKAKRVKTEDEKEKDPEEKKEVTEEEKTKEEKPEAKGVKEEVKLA
Chain of HDAC7 (Q8WUI4 518-952 limits assumed): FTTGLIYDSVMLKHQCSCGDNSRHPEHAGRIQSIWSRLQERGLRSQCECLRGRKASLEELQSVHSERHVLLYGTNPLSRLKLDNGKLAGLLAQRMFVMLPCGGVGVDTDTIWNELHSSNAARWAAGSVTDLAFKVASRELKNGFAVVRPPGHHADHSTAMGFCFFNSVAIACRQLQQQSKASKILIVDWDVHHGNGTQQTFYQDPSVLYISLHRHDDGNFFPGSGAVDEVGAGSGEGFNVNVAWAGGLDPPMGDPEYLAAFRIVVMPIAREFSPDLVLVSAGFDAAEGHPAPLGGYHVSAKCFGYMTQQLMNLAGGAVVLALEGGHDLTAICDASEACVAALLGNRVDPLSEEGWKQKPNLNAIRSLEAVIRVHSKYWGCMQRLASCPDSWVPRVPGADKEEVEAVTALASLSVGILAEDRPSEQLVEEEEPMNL

CC(C)[C@@H]1NC(=O)[C@]2(C)CSC(=N2)c2coc(n2)CNC(=O)C[C@@H](/C=C/CCS)OC1=O [Compound O11, Thiazoline-Oxazole Thiol Analog]
IC50 (HDAC7): 960 nM | IC50 (HDAC1 [1]): 4.4 nM | IC50 (HDAC2 [2]): 20 nM | IC50 (HDAC8 [3]): 1200 nM | IC50 (HDAC6): 98 nM | IC50 (HDAC3): 7.2 nM

CCCCCCCC(=O)SCC/C=C/[C@@H]1CC(=O)NCc2nc(cs2)C2=N[C@@](C)(CS2)C(=O)N[C@@H](C(C)C)C(=O)O1 [Largazole, largazole, reference compound]
Percent of Cell Lines Impacted (%), GI50 (NCI-60 cancer cell lines [4]): 100% | Percent of Cell Lines Impacted (%), LC50 (NCI-60 cancer cell lines [4]): 7% | Percent of Cell Lines Impacted (%), TGI (NCI-60 cancer cell lines [4]): 58% | Total Impacted Cell Lines (n), TGI (NCI-60 cancer cell lines [4]): 34 | IC50 (HDAC2 [5]): 18.6 nM | IC50 (HDAC1 [1]): 230 nM | Percent of Cell Lines Impacted (%), LC50, Renal (renal cancer cell lines [6]): 14% | IC50 (HDAC2 [2]): 900 nM | IC50 [7]: 45 to 315 nM | Ki (HDAC2 [8]): 21 nM | CC50 (melanoma cell lines [9]): 3.55e-06 M | Percent of Cell Lines Impacted (%), LC50, Melanoma (melanoma cell lines [10]): 33% | Ki (HDAC1 [11]): 20 nM | GI50 (NCI-60 cancer cell lines [12]; [29]): 2.1e-06 M | GI50 (NCI-60 cancer cell lines [12]; [30]): 1e-06 M | IC50 range in words for HDACs 1-3 (HDACs 1-3): high nM-μM range | IC50 (HDAC8 [13]): 1070 nM | IC50 (HDAC1 [14]): 10.1 nM

CCCCCCCC(=O)SCC/C=C/[C@@H]1CC(=O)NCc2nc(co2)C2=N[C@@](C)(CS2)C(=O)N[C@@H](C(C)C)C(=O)O1 [compound of formula D]
CC50 (colon cancer cell lines [15]): 1.47e-06 M | cell lines with some level of lethality (renal cancer cell lines [16]): 4 | lethality in select melanoma cell lines (melanoma cell lines [17]; one-dose studies): > 90% | cell lines with some level of lethality (melanoma cell lines [17]; one-dose, of the 9 melanoma): 8 | Percent of Cell Lines Impacted (%), GI50 (NCI-60 cancer cell lines [4]): 100% | Percent of Cell Lines Impacted (%), LC50 (NCI-60 cancer cell lines [4]): 16% | Percent of Cell Lines Impacted (%), TGI (NCI-60 cancer cell lines [4]): 67% | Total Impacted Cell Lines (n), TGI (NCI-60 cancer cell lines [4]): 38 | Average Concentration (M), TGI (NCI-60 cancer cell lines [4]; average over impacted cell lines): 4.57e-06 M | cell lines with some level of lethality [18]: 4 | CC50 [19]: 2.34e-06 M | Total Impacted Cell Lines (n), LC50, Renal (renal cancer cell lines [6]): 2 | Percent of Cell Lines Impacted (%), LC50, Renal (renal cancer cell lines [6]): 25% | cell lines with some level of lethality (colon cancer cell lines [20]): 4 | cell lines with some level of lethality (CNS cancer cell lines [21]): 2 | percent of NCI cell lines with some level of lethality (NCI 60 cell panel; 58 cell lines tested): 55% | NCI cell lines with some level of lethality (NCI 60 cell panel; of 58 cell lines tested): 32 | Total Impacted Cell Lines (n), LC50, Colon (colon cancer cell lines [22]): 2 | Percent of Cell Lines Impacted (%), LC50, Colon (colon cancer cell lines [22]; five-dose): 29% | Total Impacted Cell Lines (n), LC50, Ovarian [23]: 1 | Percent of Cell Lines Impacted (%), LC50, Ovarian ([23]; five-dose): 14% | CC50 (melanoma cell lines [9]): 3.72e-07 M | Total Impacted Cell Lines (n), LC50, Melanoma (melanoma cell lines [10]): 3 | Percent of Cell Lines Impacted (%), LC50, Melanoma (melanoma cell lines [10]): 38% | CC50 (CNS cancer cell lines [24]): 1.95e-05 M | GI50 (NCI-60 cancer cell lines [12]; [29]): 3.83e-08 M | CC50 (NCI-60 cancer cell lines [12]; read-out: Average Concentration (M), LC50): 5.48e-06 M | GI50 (NCI-60 cancer cell lines [12]; [30]): 1e-08 M | CC50 (NCI-60 cancer cell lines [12]; read-out: LC50 concentrations, order of magnitude): 1e-06 M | CC50 (renal cancer cell lines [25]): 1.17e-05 M | Total Impacted Cell Lines (n), LC50, CNS (CNS cancer cell lines [26]): 1 | Percent of Cell Lines Impacted (%), LC50, CNS (CNS cancer cell lines [26]; five-dose): 20% | cell lines with some level of lethality [27]: 3 | cell lines with some level of lethality [28]: 7

Reference: patent publication US10676504B2 (Colorado State University Research Foundation, priority 2015, dated 2020)
